{"source": "ChEMBL document CHEMBL1139205", "about": "“Newer tetracycline derivatives: synthesis, anti-HIV, antimycobacterial activities and inhibition of HIV-1 integrase” (Bioorg Med Chem Lett, 2007)", "key": {"[1]": {"test_system": "Human immunodeficiency virus 1", "experiment": "Antiviral activity against HIV1 3B in CEM cells assessed as inhibition of viral-induced cytopathicity", "format": "functional, organism-based", "settings": "Human immunodeficiency virus 1, 3B, CCRF-CEM"}, "[2]": {"experiment": "Cytotoxicity against CEM cells after 5 days by MTT method", "format": "cell-based", "settings": "human, CCRF-CEM (CEM) cells"}, "[3]": {"target": "T1, Human immunodeficiency virus type 1 integrase (Human immunodeficiency virus 1, UniProt Q7ZJM1)", "T1 sequence (Q7ZJM1 whole entry)": "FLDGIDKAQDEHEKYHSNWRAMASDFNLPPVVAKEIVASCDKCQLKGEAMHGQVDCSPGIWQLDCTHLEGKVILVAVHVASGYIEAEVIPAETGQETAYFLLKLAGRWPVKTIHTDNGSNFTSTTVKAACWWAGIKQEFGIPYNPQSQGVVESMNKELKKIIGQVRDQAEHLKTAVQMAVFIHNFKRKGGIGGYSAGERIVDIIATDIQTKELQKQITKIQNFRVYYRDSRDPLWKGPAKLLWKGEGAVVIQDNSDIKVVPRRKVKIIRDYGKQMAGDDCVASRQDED", "experiment": "Inhibition of HIV1 recombinant integrase 3'-processing activity"}, "[4]": {"target": "T1, Human immunodeficiency virus type 1 integrase", "experiment": "Inhibition of HIV1 recombinant integrase strand transfer activity"}, "[5]": {"test_system": "Mycobacterium tuberculosis", "experiment": "Antimycobacterial activity against Mycobacterium tuberculosis by agar dilution method", "format": "functional"}, "[6]": {"experiment": "Selectivity index, ratio of CC50 for CEM cells to EC50 for HIV1 3B", "format": "functional, CCRF-CEM"}}}
{"compound": "CN(C)[C@@H]1C(O)=C(C(=O)NCN2CCN(c3cc4c(cc3F)c(=O)c(C(=O)O)cn4C3CC3)CC2)C(=O)[C@@]2(O)C(O)=C3C(=O)c4c(O)cccc4[C@@](C)(O)[C@H]3[C@H](O)[C@@H]12", "values": [{"measurement": "EC50", "setting": "[1]", "result": "> 17.7", "unit": "µM"}, {"measurement": "CC50 at 120 h", "setting": "[2]", "result": 17.7, "unit": "µM"}, {"measurement": "IC50", "setting": "[3]", "result": 38, "unit": "µM"}, {"measurement": "IC50", "setting": "[4]", "result": 17, "unit": "µM"}, {"measurement": "MIC", "setting": "[5]", "result": 0.39, "unit": "µg/mL"}]}
{"compound": "CCn1cc(C(=O)O)c(=O)c2cc(F)c(N3CCN(CNC(=O)C4=C(O)[C@@H](N(C)C)[C@@H]5C[C@@H]6Cc7c(N(C)C)ccc(O)c7C(=O)C6=C(O)[C@]5(O)C4=O)C(C)C3)c(F)c21", "note": "(stereo not given in full)", "values": [{"measurement": "EC50", "setting": "[1]", "result": 5.2, "unit": "µM"}, {"measurement": "CC50 at 120 h", "setting": "[2]", "result": "> 200", "unit": "µM"}, {"measurement": "Ratio CC50/EC50", "setting": "[6]", "result": ">38"}, {"measurement": "IC50", "setting": "[3]", "result": 20, "unit": "µM"}, {"measurement": "IC50", "setting": "[4]", "result": 18, "unit": "µM"}, {"measurement": "MIC", "setting": "[5]", "result": 0.2, "unit": "µg/mL"}]}
{"compound": "COc1c(N2CCN(CNC(=O)C3=C(O)[C@@H](N(C)C)[C@@H]4C[C@@H]5Cc6c(N(C)C)ccc(O)c6C(=O)C5=C(O)[C@]4(O)C3=O)C(C)C2)c(F)cc2c(=O)c(C(=O)O)cn(C3CC3)c12", "note": "(stereo not given in full)", "values": [{"measurement": "EC50", "setting": "[1]", "result": "> 126", "unit": "µM"}, {"measurement": "CC50 at 120 h", "setting": "[2]", "result": 126, "unit": "µM"}, {"measurement": "MIC", "setting": "[5]", "result": 0.2, "unit": "µg/mL"}]}
{"compound": "CCn1cc(C(=O)O)c(=O)c2cc(F)c(N3CCN(CNC(=O)C4=C(O)[C@@H](N(C)C)[C@@H]5[C@@H](O)[C@H]6C(=C(O)[C@]5(O)C4=O)C(=O)c4c(O)cccc4[C@@]6(C)O)C(C)C3)c(F)c21", "note": "(stereo not given in full)", "values": [{"measurement": "EC50", "setting": "[1]", "result": 15.1, "unit": "µM"}, {"measurement": "CC50 at 120 h", "setting": "[2]", "result": 37.4, "unit": "µM"}, {"measurement": "MIC", "setting": "[5]", "result": 0.78, "unit": "µg/mL"}]}
{"compound": "CN(C)[C@@H]1C(O)=C(C(=O)NCN2CCN(c3cc4c(cc3F)c(=O)c(C(=O)O)cn4C3CC3)CC2)C(=O)[C@@]2(O)C(O)=C3C(=O)c4c(O)cccc4[C@@](C)(O)[C@H]3C[C@@H]12", "values": [{"measurement": "EC50", "setting": "[1]", "result": 8.4, "unit": "µM"}, {"measurement": "CC50 at 120 h", "setting": "[2]", "result": 141, "unit": "µM"}, {"measurement": "IC50", "setting": "[3]", "result": 20, "unit": "µM"}, {"measurement": "IC50", "setting": "[4]", "result": 12, "unit": "µM"}, {"measurement": "MIC", "setting": "[5]", "result": 0.39, "unit": "µg/mL"}]}
{"compound": "COc1c(N2CCN(CNC(=O)C3=C(O)[C@@H](N(C)C)[C@@H]4[C@@H](O)[C@H]5C(=C(O)[C@]4(O)C3=O)C(=O)c3c(O)cccc3[C@@]5(C)O)C(C)C2)c(F)cc2c(=O)c(C(=O)O)cn(C3CC3)c12", "note": "(stereo not given in full)", "values": [{"measurement": "EC50", "setting": "[1]", "result": "> 28.9", "unit": "µM"}, {"measurement": "CC50 at 120 h", "setting": "[2]", "result": 28.9, "unit": "µM"}, {"measurement": "IC50", "setting": "[3]", "result": 28, "unit": "µM"}, {"measurement": "IC50", "setting": "[4]", "result": 13.5, "unit": "µM"}, {"measurement": "MIC", "setting": "[5]", "result": 0.39, "unit": "µg/mL"}]}
{"compound": "CCn1cc(C(=O)O)c(=O)c2cc(F)c(N3CCN(CNC(=O)C4=C(O)[C@@H](N(C)C)[C@@H]5C[C@@H]6Cc7c(N(C)C)ccc(O)c7C(=O)C6=C(O)[C@]5(O)C4=O)CC3)cc21", "values": [{"measurement": "EC50", "setting": "[1]", "result": "> 130", "unit": "µM"}, {"measurement": "CC50 at 120 h", "setting": "[2]", "result": 130, "unit": "µM"}, {"measurement": "MIC", "setting": "[5]", "result": 0.78, "unit": "µg/mL"}]}
{"compound": "CN(C)c1ccc(O)c2c1C[C@H]1C[C@H]3[C@H](N(C)C)C(O)=C(C(=O)NCN4CCN(c5cc6c(cc5F)c(=O)c(C(=O)O)cn6C5CC5)CC4)C(=O)[C@@]3(O)C(O)=C1C2=O", "values": [{"measurement": "EC50", "setting": "[1]", "result": "> 120", "unit": "µM"}, {"measurement": "CC50 at 120 h", "setting": "[2]", "result": 120, "unit": "µM"}, {"measurement": "MIC", "setting": "[5]", "result": 0.78, "unit": "µg/mL"}]}
{"compound": "CCn1cc(C(=O)O)c(=O)c2cc(F)c(N3CCN(CNC(=O)C4=C(O)[C@@H](N(C)C)[C@@H]5C[C@H]6C(=C(O)[C@]5(O)C4=O)C(=O)c4c(O)cccc4[C@@]6(C)O)C(C)C3)c(F)c21", "note": "(stereo not given in full)", "values": [{"measurement": "EC50", "setting": "[1]", "result": 7.58, "unit": "µM"}, {"measurement": "CC50 at 120 h", "setting": "[2]", "result": "> 200", "unit": "µM"}, {"measurement": "IC50", "setting": "[3]", "result": 65, "unit": "µM"}, {"measurement": "IC50", "setting": "[4]", "result": 44, "unit": "µM"}, {"measurement": "MIC", "setting": "[5]", "result": 1.56, "unit": "µg/mL"}]}
{"compound": "COc1c(N2CCN(CNC(=O)C3=C(O)[C@@H](N(C)C)[C@@H]4C[C@H]5C(=C(O)[C@]4(O)C3=O)C(=O)c3c(O)cccc3[C@@]5(C)O)C(C)C2)c(F)cc2c(=O)c(C(=O)O)cn(C3CC3)c12", "note": "(stereo not given in full)", "values": [{"measurement": "EC50", "setting": "[1]", "result": 20.2, "unit": "µM"}, {"measurement": "CC50 at 120 h", "setting": "[2]", "result": 140, "unit": "µM"}, {"measurement": "MIC", "setting": "[5]", "result": 0.2, "unit": "µg/mL"}]}
{"compound": "CCn1cc(C(=O)O)c(=O)c2cc(F)c(N3CCN(CNC(=O)C4=C(O)[C@@H](N(C)C)[C@@H]5[C@@H](O)[C@H]6C(=C(O)[C@]5(O)C4=O)C(=O)c4c(O)cccc4[C@@]6(C)O)CC3)cc21", "values": [{"measurement": "EC50", "setting": "[1]", "result": 12.2, "unit": "µM"}, {"measurement": "CC50 at 120 h", "setting": "[2]", "result": 40, "unit": "µM"}, {"measurement": "IC50", "setting": "[3]", "result": 21, "unit": "µM"}, {"measurement": "IC50", "setting": "[4]", "result": 12, "unit": "µM"}, {"measurement": "MIC", "setting": "[5]", "result": 0.78, "unit": "µg/mL"}]}
{"compound": "CCn1cc(C(=O)O)c(=O)c2cc(F)c(N3CCN(CNC(=O)C4=C(O)[C@@H](N(C)C)[C@@H]5C[C@H]6C(=C(O)[C@]5(O)C4=O)C(=O)c4c(O)cccc4[C@@]6(C)O)CC3)cc21", "values": [{"measurement": "EC50", "setting": "[1]", "result": 14.6, "unit": "µM"}, {"measurement": "CC50 at 120 h", "setting": "[2]", "result": 131, "unit": "µM"}, {"measurement": "IC50", "setting": "[3]", "result": 20, "unit": "µM"}, {"measurement": "IC50", "setting": "[4]", "result": 13, "unit": "µM"}, {"measurement": "MIC", "setting": "[5]", "result": 0.78, "unit": "µg/mL"}]}
{"compound": "CCn1cc(C(=O)O)c(=O)c2cc(F)c(N3CCNC(C)C3)c(F)c21", "note": "(stereo not given) [LOMEFLOXACIN]", "values": [{"measurement": "MIC", "setting": "[5]", "result": 6.25, "unit": "µg/mL"}]}
{"compound": "CN(C)c1ccc(O)c2c1C[C@H]1C[C@H]3[C@H](N(C)C)C(O)=C(C(N)=O)C(=O)[C@@]3(O)C(O)=C1C2=O", "note": "[MINOCYCLINE]", "values": [{"measurement": "EC50", "setting": "[1]", "result": "> 52.1", "unit": "µM"}, {"measurement": "CC50 at 120 h", "setting": "[2]", "result": 52.1, "unit": "µM"}, {"measurement": "MIC", "setting": "[5]", "result": "> 6.25", "unit": "µg/mL"}]}
{"compound": "CN(C)[C@@H]1C(O)=C(C(=O)NCN2CCCC2)C(=O)[C@@]2(O)C(O)=C3C(=O)c4c(O)cccc4[C@@](C)(O)[C@H]3C[C@@H]12", "note": "[ROLITETRACYCLINE]", "values": [{"measurement": "EC50", "setting": "[1]", "result": "> 45.5", "unit": "µM"}, {"measurement": "CC50 at 120 h", "setting": "[2]", "result": 45.5, "unit": "µM"}, {"measurement": "IC50", "setting": "[3]", "result": 28, "unit": "µM"}, {"measurement": "IC50", "setting": "[4]", "result": 34, "unit": "µM"}, {"measurement": "MIC", "setting": "[5]", "result": "> 6.25", "unit": "µg/mL"}]}
{"compound": "CN(C)[C@@H]1C(O)=C(C(N)=O)C(=O)[C@@]2(O)C(O)=C3C(=O)c4c(O)cccc4[C@@](C)(O)[C@H]3C[C@@H]12", "note": "[TETRACYCLINE]", "values": [{"measurement": "EC50", "setting": "[1]", "result": "> 40.5", "unit": "µM"}, {"measurement": "CC50 at 120 h", "setting": "[2]", "result": 40.5, "unit": "µM"}, {"measurement": "IC50", "setting": "[3]", "result": 204, "unit": "µM"}, {"measurement": "IC50", "setting": "[4]", "result": 188, "unit": "µM"}, {"measurement": "MIC", "setting": "[5]", "result": "> 6.25", "unit": "µg/mL"}]}
